Experimental data reported in ChEMBL document CHEMBL1201862, “PubChem BioAssay data set” (2004).
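Grown in 96-well plates, cells were treated for 48 hours with each compound at five concentrations. Insufficient inhibition: endpoint recorded as highest concentration tested. GI50: concentration for 50% inhibition of growth.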 Activity calls are given as the source filed them. Cut-off read from the data, not from the text of the source: active = GI50 up to about 1.1 µM and inactive = higher.

Legend:
Assay in all cases: growth of human tumour cells (NCI), 48 h
KM-20L2 = tested on: KM-20L2
HOP-18 = tested on: HOP-18
HCT-116 = tested on: HCT-116
NCI-H23 = tested on: NCI-H23
UACC-62 = tested on: UACC-62
SF-268 = tested on: SF-268
SK-OV-3 = tested on: SK-OV-3
SF-295 = tested on: SF-295
SK-MEL-28 = tested on: SK-MEL-28
OVCAR-5 = tested on: OVCAR-5
TK-10 = tested on: TK-10
Malme-3M = tested on: Malme-3M
LXFL 529 = tested on: LXFL 529
XF498 = tested on: XF498
CCRF-CEM = tested on: CCRF-CEM
IGROV-1 = tested on: IGROV-1
SK-MEL-2 = tested on: SK-MEL-2
UACC-257 = tested on: UACC-257
HCC 2998 = tested on: HCC 2998
MOLT-4 = tested on: MOLT-4
NCI-H522 = tested on: NCI-H522
DLD-1 = tested on: DLD-1
HL-60 = tested on: HL-60
LOX IMVI = tested on: LOX IMVI
MDA-N = tested on: MDA-N
SN12C = tested on: SN12C
Hs-578T = tested on: Hs-578T
MCF7 = tested on: MCF7
SF-539 = tested on: SF-539
SNB-75 = tested on: SNB-75
DU-145 = tested on: DU-145
MDA-MB-435 = tested on: MDA-MB-435
COLO 205 = tested on: COLO 205
T47D = tested on: T47D
SNB-78 = tested on: SNB-78
PC-3 = tested on: PC-3
OVCAR-4 = tested on: OVCAR-4
MDA-MB-231 = tested on: MDA-MB-231
EKVX = tested on: EKVX
OVCAR-3 = tested on: OVCAR-3
HCT-15 = tested on: HCT-15
A549 = tested on: A549
SR = tested on: SR
SK-MEL-5 = tested on: SK-MEL-5
CAKI-1 = tested on: CAKI-1
OVCAR-8 = tested on: OVCAR-8
A498 = tested on: A498
NCI-H226 = tested on: NCI-H226
DMS-273 = tested on: DMS-273
ACHN = tested on: ACHN
K562 = tested on: K562
HOP-62 = tested on: HOP-62
786-0 = tested on: 786-0
UO-31 = tested on: UO-31
BT-549 = tested on: BT-549
NCI-H460 = tested on: NCI-H460
NCI/ADR-RES = tested on: NCI/ADR-RES
SW-620 = tested on: SW-620
HOP-92 = tested on: HOP-92
RPMI-8226 = tested on: RPMI-8226
HT-29 = tested on: HT-29
RXF 393 = tested on: RXF 393
U-251 = tested on: U-251
SNB-19 = tested on: SNB-19
M14 = tested on: M14
KM12 = tested on: KM12
DMS-114 = tested on: DMS-114
M19-MEL = tested on: M19-MEL

SMILES: COc1cc2c(c(OC)c1OC)-c1ccc(SC)c(=O)cc1C(NC(=O)c1ccccc1)CC2 (configuration not stated)
- GI50 (KM-20L2): < 10 nM (active)
- GI50 (HOP-18): 77100 nM (inactive)
- GI50 (HCT-116): < 10 nM (active)
- GI50 (NCI-H23): 10.7 nM (active)
- GI50 (UACC-62): < 10 nM (active)
- GI50 (SF-268): < 10 nM (active)
- GI50 (SK-OV-3): 27 nM (active)
- GI50 (SF-295): < 10 nM (active)
- GI50 (SK-MEL-28): 305 nM (active)
- GI50 (OVCAR-5): 303 nM (active)
- GI50 (TK-10): 240 nM (active)
- GI50 (Malme-3M): < 10 nM (active)
- GI50 (LXFL 529): < 10 nM (active)
- GI50 (XF498): < 60.1 nM (active)
- GI50 (CCRF-CEM): < 10 nM (active)
- GI50 (IGROV-1): < 10 nM (active)
- GI50 (SK-MEL-2): < 10 nM (active)
- GI50 (UACC-257): 526 nM (active)
- GI50 (HCC 2998): < 10 nM (active)
- GI50 (MOLT-4): < 10 nM (active)
- GI50 (NCI-H522): < 10 nM (active)
- GI50 (DLD-1): < 10 nM (active)
- GI50 (HL-60): < 10 nM (active)
- GI50 (LOX IMVI): < 10 nM (active)
- GI50 (MDA-N): < 10 nM (active)
- GI50 (SN12C): < 10 nM (active)
- GI50 (Hs-578T): < 10 nM (active)
- GI50 (MCF7): < 10 nM (active)
- GI50 (SF-539): 11.8 nM (active)
- GI50 (SNB-75): 167 nM (active)
- GI50 (DU-145): < 10 nM (active)
- GI50 (MDA-MB-435): < 10 nM (active)
- GI50 (COLO 205): < 10 nM (active)
- GI50 (T47D): 86300 nM (inactive)
- GI50 (SNB-78): < 10 nM (active)
- GI50 (PC-3): < 10 nM (active)
- GI50 (OVCAR-4): 1450 nM (inactive)
- GI50 (MDA-MB-231): < 10 nM (active)
- GI50 (EKVX): 21200 nM (inactive)
- GI50 (OVCAR-3): < 10 nM (active)
- GI50 (HCT-15): < 10 nM
- GI50 (A549): < 10 nM (active)
- GI50 (SR): < 13.7 nM (active)
- GI50 (SK-MEL-5): < 10 nM (active)
- GI50 (CAKI-1): < 10 nM (active)
- GI50 (OVCAR-8): < 10 nM (active)
- GI50 (A498): < 10 nM (active)
- GI50 (NCI-H226): 46.5 nM (active)
- GI50 (DMS-273): < 10 nM (active)
- GI50 (ACHN): < 10 nM (active)
- GI50 (K562): < 10 nM (active)
- GI50 (HOP-62): < 10 nM (active)
- GI50 (786-0): < 10 nM (active)
- GI50 (UO-31): 272 nM (active)
- GI50 (BT-549): 15600 nM (inactive)
- GI50 (NCI-H460): < 10 nM (active)
- GI50 (NCI/ADR-RES): 10.3 nM (active)
- GI50 (SW-620): < 10 nM (active)
- GI50 (HOP-92): 11.9 nM (active)
- GI50 (RPMI-8226): < 10 nM (active)
- GI50 (HT-29): < 10 nM (active)
- GI50 (RXF 393): 44.4 nM (active)
- GI50 (U-251): < 10 nM (active)
- GI50 (SNB-19): < 10 nM (active)
- GI50 (M14): < 10 nM (active)
- GI50 (KM12): < 10 nM (active)

SMILES: O=C(NC12CC3CC(CC(C3)C1)C2)C(=O)c1c[nH]c2ccc([N+](=O)[O-])cc12
- GI50 (KM-20L2): 36500 nM (inactive)
- GI50 (HOP-18): 28600 nM (inactive)
- GI50 (HCT-116): 18700 nM (inactive)
- GI50 (NCI-H23): 38700 nM (inactive)
- GI50 (UACC-62): 19100 nM (inactive)
- GI50 (SF-268): 9480 nM (inactive)
- GI50 (SK-OV-3): 76600 nM (inactive)
- GI50 (SF-295): 6180 nM (inactive)
- GI50 (SK-MEL-28): 85100 nM (inactive)
- GI50 (OVCAR-5): > 87500 nM (inactive)
- GI50 (TK-10): 24900 nM (inactive)
- GI50 (Malme-3M): 24700 nM (inactive)
- GI50 (LXFL 529): 20200 nM (inactive)
- GI50 (XF498): 18200 nM (inactive)
- GI50 (CCRF-CEM): > 44900 nM (inactive)
- GI50 (IGROV-1): > 94200 nM (inactive)
- GI50 (SK-MEL-2): > 59800 nM (inactive)
- GI50 (UACC-257): 85500 nM (inactive)
- GI50 (HCC 2998): > 100000 nM (inactive)
- GI50 (MOLT-4): > 100000 nM (inactive)
- GI50 (NCI-H522): 25200 nM (inactive)
- GI50 (HL-60): > 35600 nM (inactive)
- GI50 (LOX IMVI): 15300 nM (inactive)
- GI50 (SN12C): 31000 nM (inactive)
- GI50 (SF-539): 46100 nM (inactive)
- GI50 (SNB-75): 14200 nM (inactive)
- GI50 (COLO 205): 24500 nM (inactive)
- GI50 (OVCAR-4): 7590 nM (inactive)
- GI50 (EKVX): 97300 nM (inactive)
- GI50 (OVCAR-3): 24800 nM (inactive)
- GI50 (HCT-15): > 78900 nM
- GI50 (A549): 11300 nM (inactive)
- GI50 (SR): 14000 nM (inactive)
- GI50 (DMS-114): 43900 nM (inactive)
- GI50 (SK-MEL-5): 30300 nM (inactive)
- GI50 (CAKI-1): 65900 nM (inactive)
- GI50 (OVCAR-8): 19000 nM (inactive)
- GI50 (A498): 37800 nM (inactive)
- GI50 (NCI-H226): 23800 nM (inactive)
- GI50 (DMS-273): 5660 nM (inactive)
- GI50 (ACHN): 90400 nM (inactive)
- GI50 (K562): 49000 nM (inactive)
- GI50 (HOP-62): 17100 nM (inactive)
- GI50 (786-0): 16900 nM (inactive)
- GI50 (UO-31): > 47200 nM (inactive)
- GI50 (NCI-H460): 13500 nM (inactive)
- GI50 (SW-620): 31700 nM (inactive)
- GI50 (HOP-92): 30300 nM (inactive)
- GI50 (RPMI-8226): > 83000 nM (inactive)
- GI50 (HT-29): > 44400 nM (inactive)
- GI50 (RXF 393): 21100 nM (inactive)
- GI50 (U-251): 10900 nM (inactive)
- GI50 (M19-MEL): 60000 nM (inactive)
- GI50 (SNB-19): > 20100 nM (inactive)
- GI50 (M14): 34000 nM (inactive)
- GI50 (KM12): 33700 nM (inactive)
